US20260151400A1, “USE OF ANTAGONISTS OF NEUROKININ-1 RECEPTOR AND NUCLEOSIDE ANALOGS FOR THE TREATMENT OF HERPESVIRIDAE” (THE REGENTS OF THE UNIVERSITY OF COLORADO, a body corporate, priority 2022, published 2026)

How the values were obtained:
[1] = test system: uninfected HA-sp (primary human spinal astrocytes); settings: aprepitant tested at 1-100 μM, data not shown
Experimental: After 24 hours, medium was changed to basal astrocyte medium containing 0.1% FBS and 1% 100× penicillin-streptomycin that was replenished every 72 hours for 7 days to establish quiescence. On day 7, spinal astrocytes were co-cultivated with VZV-infected spinal astrocytes (40 pfu/mL) or mock-infected spinal astrocytes.

[2] = target: NK-1 receptors in the brain (Homo sapiens, UniProt P25103); settings: occupies NK-1 receptors in the brain; cited from earlier work
[3] = IV acyclovir; precipitation of aciclovir crystals in the kidney; cited from earlier work

Sequence of NK-1 receptors in the brain (P25103 whole entry): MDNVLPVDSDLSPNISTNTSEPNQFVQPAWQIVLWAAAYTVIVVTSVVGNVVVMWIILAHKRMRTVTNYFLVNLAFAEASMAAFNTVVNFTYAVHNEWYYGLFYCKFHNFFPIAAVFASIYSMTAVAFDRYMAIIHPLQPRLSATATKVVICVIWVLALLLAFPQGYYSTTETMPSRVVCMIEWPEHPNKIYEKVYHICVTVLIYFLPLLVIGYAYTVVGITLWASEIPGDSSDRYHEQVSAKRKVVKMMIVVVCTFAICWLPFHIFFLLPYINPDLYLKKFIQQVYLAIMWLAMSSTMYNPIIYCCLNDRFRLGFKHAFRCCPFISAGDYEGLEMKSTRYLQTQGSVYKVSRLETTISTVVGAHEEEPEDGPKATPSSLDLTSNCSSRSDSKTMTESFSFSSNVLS

Row | SMILES | optimal concentration to avoid cell death [1] [µM] | blood-brain barrier crossing [2] | patients with reversible nephrotoxicity [3]
1 | C[C@@H](O[C@H]1OCCN(Cc2n[nH]c(=O)[nH]2)[C@H]1c1ccc(F)cc1)c1cc(C(F)(F)F)cc(C(F)(F)F)c1 [aprepitant] | 10 | crosses the blood-brain barrier | –
2 | Nc1nc2c(ncn2COCCO)c(=O)[nH]1 [acyclovir] | – | – | 5-10%
